Assay results: patent US5430148A, “Antiproliferative quinazolines” (Agouron Pharmaceuticals, Inc., priority 1992, dated 1995)
Read-outs that look alike come from different tables or passages of the source.

How the values were obtained:
[1] = target: human TS (thymidylate synthase) (Homo sapiens, UniProt P04818); assay: Inhibition constants against 5,10-methylenetetrahydrofolate for thymidylate synthase, human enzyme (tritium release); type: biochemical; settings: cofactor as variable substrate, pH 7.6, 24° C.
Experimental: (§1) Determination of Inhibition Constants Against 5,10-Methylenetetrahydrofolate for the Enzyme Thymidylate Synthase
(§2) Inhibition constants, Ki, slope and Ki, intercept [W. W. Cleland, Biochim. Biophys. […] The cofactor was present as the variable substrate under conditions of saturating radiolabelled 2'-deoxyuridine 5-monophosphate (dUMP). […] Assays of human TS also contained 1-5 μg/mL bovine serum albumin to stabilize the protein. Reactions were initiated by the addition of enzyme and were carried out for 5 minutes at 24° C., and then quenched by the addition of charcoal (15 mg in 0.1 mL H2 O). The quenched samples were centrifuged at 10,000 rpm for 12-15 min at […] to remove unreacted dUMP which had bound to the charcoal, and 0.1 mL of the supernatant was counted by liquid scintillation in the presence of 5 mL ecolume to determine the release of tritium label from the 5-position of the dUMP. […] Experimental results were analyzed by EZ-FIT, a nonlinear regression analysis program (Perrella Scientific, Springfield, Pa.) which was used to fit all data points simultaneously to a mixed noncompetitive inhibition scheme.

GC3/M TK- cells = assay: Inhibition of growth of tumor cells, thymidine kinase-deficient human colon adenocarcinoma GC3/M TK- (MTT); type: cell-based; settings: for IC50: read-out: Cell Culture IC50, GC3-M (TK-)
Experimental: (§3) In Vitro Testing to Determine Inhibition of Growth of Tumor Cells
(§4) Growth was measured over 3 days (L1210) or 5 days (CCRF-CEM, GC3 /M TK^-) of continuous exposure to varying concentrations of each test compound, added 4 h. after initial cell plating, by the MTT-tetrazolium reduction assay of T. J. Mosmann [J. Immunol. Meth. […] Water insoluble derivatives were dissolved in DMSO and diluted to a final concentration of 0.5% solvent in cell cultures.

[2] = target: E. coli TS (thymidylate synthase) (Escherichia coli, UniProt P0A884); assay: Inhibition constants against 5,10-methylenetetrahydrofolate for thymidylate synthase, E. coli enzyme (tritium release); type: biochemical
Experimental: as §1, §2

CCRF-CEM cells = assay: Inhibition of growth of tumor cells, CCRF-CEM human lymphoblastic leukemia (MTT); type: cell-based; settings: for IC50: read-out: Cell Culture IC50, CCRF-CEM; for inhibition at 50 µM: read-out: growth inhibition, CCRF-CEM
Experimental: as §3, §4

[3] = test system: L1210 murine leukemia cells; assay: Inhibition of growth of tumor cells, L1210 murine leukemia (MTT); type: cell-based; settings: for IC50: read-out: Cell Culture IC50, L1210; for inhibition at 50 µM: read-out: growth inhibition, L1210
Experimental: as §3, §4

[4] = Ki Data, human thymidylate synthase
[5] = Homo sapiens, GC3/MTK-, 120 h, 5 days continuous exposure, MTT
[6] = Homo sapiens, CCRF-CEM, 120 h, 5 days continuous exposure, MTT
[7] = Mus musculus, L1210, 72 h, 3 days continuous exposure, MTT
[8] = read-out: Ki Data, human thymidylate synthase
[9] = Mus musculus, L1210, 72 h, @ > 50 μM, 3 days
[10] = 5 days continuous exposure, MTT

E. coli TS (thymidylate synthase), sequence (P0A884 whole entry): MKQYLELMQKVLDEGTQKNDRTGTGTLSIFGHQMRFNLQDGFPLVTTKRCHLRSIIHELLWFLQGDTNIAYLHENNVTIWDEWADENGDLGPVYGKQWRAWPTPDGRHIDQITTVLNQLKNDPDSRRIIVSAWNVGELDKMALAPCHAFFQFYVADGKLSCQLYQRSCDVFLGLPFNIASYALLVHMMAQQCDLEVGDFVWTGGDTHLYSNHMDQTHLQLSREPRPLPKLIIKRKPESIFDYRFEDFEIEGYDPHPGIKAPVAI
human TS (thymidylate synthase), sequence (P04818 2-313 limits assumed): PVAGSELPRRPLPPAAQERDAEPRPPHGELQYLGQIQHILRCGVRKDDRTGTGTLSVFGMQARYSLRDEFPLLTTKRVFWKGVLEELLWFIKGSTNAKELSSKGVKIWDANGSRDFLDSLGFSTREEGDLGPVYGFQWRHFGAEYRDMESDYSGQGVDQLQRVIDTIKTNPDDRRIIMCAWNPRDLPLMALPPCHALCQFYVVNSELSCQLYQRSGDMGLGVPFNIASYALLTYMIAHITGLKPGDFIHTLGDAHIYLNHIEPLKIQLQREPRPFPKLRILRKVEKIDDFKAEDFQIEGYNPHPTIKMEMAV

SMILES	Ki [1, 4] [µM]	IC50 (GC3/M TK- cells; [5]) [µM]	Ki [2] [µM]	IC50 (CCRF-CEM cells; [6]) [µM]	IC50 [3, 7] [µM]	also measured
COc1cc(Sc2c(C)ccc3nc(C)[nH]c(=O)c23)ccn1 [Compound 16A, 3,4-Dihydro-2,6-dimethyl-4-oxo-5-[4-(6-methoxypyridylthio)]quinazoline]	0.048 ± 0.006	> 5	0.76 ± 0.12	–	–	–
Cc1nc2ccc(C)c(Sc3ccc(C(=O)N[C@@H](CCC(=O)O)C(=O)O)cc3)c2c(=O)[nH]1 [Compound 27A, N-[4-((3,4-Dihydro-2,6-dimethyl-4-oxo-5-quinazolinyl)thio)benzoyl]-L-glutamic acid]	0.00795	4.1	–	0.99	1.05	–
Cc1nc2cccc(Cn3cncc3-c3ccc([N+](=O)[O-])cc3)c2c(=O)[nH]1 [Compound 32A]	–	> 10	> 10	6	> 10	Ki [1, 8]: > 10 µM; inhibition at 10 µM (GC3/M TK- cells; Homo sapiens, GC3/MTK-, 120 h, @ > 10 μM, 5 days): 30%
Cc1nc2ccc(C)c(Sc3cccnc3)c2c(=O)[nH]1 [Compound 21A]	190 ± 25	–	–	–	–	IC50 (CCRF-CEM cells; Homo sapiens, CCRF-CEM, 120 h): > 50 µM; inhibition at 50 µM (CCRF-CEM cells; Homo sapiens, CCRF-CEM, 120 h): 42%; IC50 ([3]; Mus musculus, L1210, 72 h): > 50 µM; inhibition at 50 µM ([3]; Mus musculus, L1210, 72 h): 28%; growth inhibition, GC3-M (TK-) (GC3/M TK- cells; @ > 50 μM, 5 days): none; IC50 (GC3/M TK- cells; Homo sapiens, GC3/MTK-, 120 h): > 50 µM
Cc1nc2ccc(C)c(Sc3ccc(C(=O)O)cc3)c2c(=O)[nH]1 [Compound 28A, 4-[(3,4-Dihydro-2,6-dimethyl-4-oxo-5-quinazolinyl)thio]-benzoic acid]	0.115	> 50	–	> 50	> 50	growth inhibition, CCRF-CEM (CCRF-CEM cells; @ > 50 μM, 5 days): none; inhibition at 50 µM [3, 9]: 27%; growth inhibition, GC3-M (TK-) (GC3/M TK- cells; @ > 50 μM, 5 days): none
Cc1nc2ccc(C)c(Sc3ccc(S(=O)(=O)c4ccccc4)cc3)c2c(=O)[nH]1 [Compound 9A]	–	4.5	–	2.1	1.8	–
Cc1cc(Sc2c(C)ccc3nc(C)[nH]c(=O)c23)ccn1 [Compound 12A, 3,4-Dihydro-2,6-dimethyl-4-oxo-5-[4-(2-picolinylthio)]-quinazoline]	0.07 ± 0.001	5	0.55 ± 0.05	4.2	4.2	–
Cc1nc2cccc(Sc3ccccn3)c2c(=O)[nH]1 [Compound 20A]	61 ± 17	> 50	311 ± 99	> 50	> 50	inhibition at 50 µM (CCRF-CEM cells; Homo sapiens, CCRF-CEM, 120 h, @ > 50 μM, 5 days): 20%; inhibition at 50 µM [3, 9]: 40%; growth inhibition, GC3-M (TK-) (GC3/M TK- cells; @ > 50 μM, 5 days): none
Cc1nc2ccc(C)c(Sc3nnc(C)s3)c2c(=O)[nH]1 [Compound 11A]	–	> 3.33	21 ± 13	> 3.33	> 3.33	inhibition at 3.33 µM (CCRF-CEM cells; Homo sapiens, CCRF-CEM, 120 h, @ > 3.33 μM, 5 days): 17%; growth inhibition, L1210 ([3]; @ > 3.33 μM, 3 days): none; Ki [1, 8]: 2 ± 0.4 µM; growth inhibition, GC3-M (TK-) (GC3/M TK- cells; @ > 3.33 μM, 5 days): none
COc1ccc2nc(C)[nH]c(=O)c2c1Sc1ccncc1 [Compound 13A, 3,4-Dihydro-6-methoxy-2-methyl-4-oxo-5-(4-pyridylthio)-quinazoline]	–	32	–	26	21	–
Cc1nc2cccc(Sc3cc[n+](Cc4ccccc4)cc3)c2c(=O)[nH]1 [Compound 22A]	–	> 2.5	9.3 ± 1.6	> 2.5	> 2.5	growth inhibition, CCRF-CEM (CCRF-CEM cells; @ > 2.5 μM, 5 days): none; inhibition at 2.5 µM ([3]; Mus musculus, L1210, 72 h, @ > 2.5 μM, 3 days): 4%; Ki [1, 8]: 1.1 ± 0.3 µM; growth inhibition, GC3-M (TK-) (GC3/M TK- cells; @ > 2.5 μM, 5 days): none
Cc1ccc2nc(N)[nH]c(=O)c2c1Sc1ccnc(C(F)(F)F)c1 [Compound 18A, 2-Amino-3,4-dihydro-6-methyl-4-oxo-5-[4-(6-trifluoromethylpyridylthio)]-quinazoline]	–	> 2	–	> 2	1.8	inhibition at 2 µM (CCRF-CEM cells; Homo sapiens, CCRF-CEM, 120 h, @ > 2.0 μM, 5 days): 33%; inhibition at 2 µM (GC3/M TK- cells; Homo sapiens, GC3/MTK-, 120 h, @ > 2.0 μM, 5 days): 33%
Cc1nc2ccc(C)c(Sc3ccncc3)c2c(=O)[nH]1 [Compound 23A]	0.13 ± 0.009	–	–	–	–	IC50 (CCRF-CEM cells; [10]): 5.1 µM; IC50 ([3]; 3 days continuous exposure, MTT): 3.5 µM; IC50 (GC3/M TK- cells; [10]): 6.1 µM
Cc1ccc2nc(N)[nH]c(=O)c2c1Sc1ccncc1 [Compound 24A]	–	1.2	–	1.1	0.55	–
